Data reported in article PMC4516925, “Three Peptide Modulators of the Human Voltage-Gated Sodium Channel 1.7, an Important Analgesic Target, from the Venom of an Australian Tarantula” (Toxins, 2015).
“Also recorded” adds a separate entry of the source. Where a SMILES comes first, the peptide text is derived from it. Bridges are numbered along the chain shown (N, C = ends).

Columns and labels:
hNaV1.7 [1] = target: T1, hNaV1.7 (Homo sapiens, UniProt Q15858); conditions: cited from earlier work
T1 construct: expressed in transfected cells; host or cells: Xenopus oocytes (cRNA injection)

NaV1.2 [2] = conditions: cited from earlier work
NaV1.5 = conditions: cited from earlier work
NaV channels = conditions: cited from earlier work
Source text: Approximately 12% of spider toxins are C-terminally amidated. In addition to a possible role in peptide stability, C-terminal amidation can modulate biological activity. The 35-residue spider-venom peptide huwentoxin-IV (HwTx-IV) is a member of NaSpTx Family 1 isolated from venom of the tarantula Haplopelma schmidti (formerly known as Ornithoctonus huwena). Remarkably, native HwTx-IV with C-terminal amidation inhibits hNaV1.7 with is ~50-fold higher potency than a recombinant version with a C-terminal carboxylate group. […] Thus, we investigated the effects of Phlogius peptides on the current-voltage (I-V) relationship for hNaV1.7 using step-depolarisations ranging from −60 to +70 mV from a holding potential of −80 mV.

NaV1.2 [3] = conditions: chimeric KV1.2/NaV1.2 channels; rat NaV1.2; cited from earlier work
[4] = test system: sodium channel domain II voltage sensor; conditions: gating modifier; cited from earlier work
hNaV1.7 [5] = target: T1, hNaV1.7; assay: Inhibition of hNaV1.7 currents, two-electrode voltage clamp in Xenopus oocytes; type: cell-based; conditions: TEVC; for IC50 / Hill coefficient, inhibition of hNaV1.7: Xenopus oocytes, n = 5–7; for IC50: 50-ms step to 0 mV from −80 mV every 10 s, ND96 pH 7.4 with 0.1% BSA, 20 °C–22 °C, Hill equation, mean ± S.E.M.; for Selectivity, hNaV1.7 versus rNaV1.2 and hNaV1.5 (in words): comparison with rNaV1.2 and hNaV1.5, Xenopus oocytes; for Hill coefficient, inhibition of hNaV1.7: from concentration-effect curve
Procedure: (§1) Plasmids containing cloned rNaV1.2, hNaV1.5 and hNaV1.7 were linearised, then capped cRNAs were synthesised using a T7 mMESSAGE-mMACHINE transcription kit (Ambion, Austin, TX, USA). Stage V-VI oocytes were obtained from anesthetised Xenopus frogs and prepared as previously described. Oocytes were injected with 20–40 ng of cRNA (Nanoject 2000; WPI, Sarasota, FL, USA) and incubated for 2–6 days at 17 °C in ND96 solution (96 mM NaCl, 2 mM KCl, 1 mM CaCl2, 2 mM MgCl2, 5 mM HEPES, pH 7.4), supplemented with 2.5 mM sodium pyruvate, 50 μg/mL gentamicin and 2.5% horse serum prior to electrophysiological recordings. All work with animals was carried out in strict accordance with the recommendations in the Australian code of practice for the care and use of animals for scientific purposes. The protocol was approved by the Anatomical Biosciences group of the Animal Ethics Committee at The University of Queensland (Approval Number QBI/059/13/ARC/NHMRC).
(§2) Two-electrode voltage clamp (TEVC) recordings were performed at room temperature (20 °C–22 °C) under voltage-clamp (Axoclamp 900A, Molecular Devices, Sunnyvale, CA, USA) using two standard glass microelectrodes of 0.5–1 MΩ resistance when filled with 3 M KCl solution. Stimulation, data acquisition, and analysis were performed using pCLAMP software (Version 10, Molecular Devices, Sunnyvale, CA, USA). Peptide stock solutions were made up to 30 μM, and serial dilutions were prepared in ND96 solution (pH 7.4) containing 0.1% bovine serum albumin (BSA). Venom peptides were applied directly to the recording chamber to prevent adsorption to plastics.
(§3) NaV channel recordings were performed on oocytes clamped at −80 mV. Data were sampled at 20 kHz and filtered at 2 kHz. Inward sodium currents were elicited by a 50-ms depolarising step to 0 mV every 10 s. Once the peak current had stabilised (typically ~3 min), serial dilutions of peptides were applied to oocytes to obtain concentration-effect curves. Data were analysed using Clampfit 10.2 and Prism 6.0 (GrahPad Software, La Jolla, CA, USA, 2013). The Hill equation was fit to the data to obtain the half-maximal inhibitory concentration (IC50) values and Hill coefficient (nH). Data are presented as mean ± S.E.M. (n = number of oocytes). I-V relationships in the absence and presence of 300 nM and 1 μM peptide were obtained on oocytes clamped at −80 mV; families of currents were evoked by applying 50-ms depolarising steps from −60 mV to +70 mV with 10-mV increments every 10 s. After acquiring the control I–V curve, the first concentration of peptide was added and the inhibitory effect was allowed to plateau (a test pulse from −80 to 0 mV every 10 s) before obtaining an I–V curve in the presence of peptide. This was repeated for the second concentration of peptide. Data were normalised to the maximal peak current and analysed using Clampfit 10.2 and Prism 6.0.

rNaV1.2 = target: T2, rNaV1.2 (Rattus norvegicus, UniProt P04775); assay: Inhibition of rNaV1.2 currents, two-electrode voltage clamp in Xenopus oocytes; type: cell-based; conditions: TEVC; for inhibition at 1 µM: 1 μM peptide, 50-ms step to 0 mV from −80 mV every 10 s
T2 construct: expressed in transfected cells; host or cells: Xenopus oocytes (cRNA injection)
Procedure: as §1, §2
as §3, with “After acquiring the control I–V curve, the first concentration of peptide was added and the inhibitory effect was allowed to plateau (a test pulse from −80 to 0 mV every 10 s) before obtaining an I–V curve in the presence of peptide. This was repeated for the second concentration of peptide.” left out

hNaV1.5 = target: T3, hNaV1.5 (Homo sapiens, UniProt Q14524); assay: Inhibition of hNaV1.5 currents, two-electrode voltage clamp in Xenopus oocytes; type: cell-based; conditions: TEVC
T3 construct: expressed in transfected cells; host or cells: Xenopus oocytes (cRNA injection)
Procedure: as §1, §2
NaV channel recordings were performed on oocytes clamped at −80 mV. Data were sampled at 20 kHz and filtered at 2 kHz. Inward sodium currents were elicited by a 50-ms depolarising step to 0 mV every 10 s. […] Data were analysed using Clampfit 10.2 and Prism 6.0 (GrahPad Software, La Jolla, CA, USA, 2013). […] Data were normalised to the maximal peak current and analysed using Clampfit 10.2 and Prism 6.0.

hNaV1.7 [6] = target: T1, hNaV1.7; assay: Current-voltage (I-V) relationship / V0.5 of activation of hNaV1.7; type: cell-based; conditions: 300 nM and 1 μM; n = 6
Procedure: as §1, with “QBI/059/13/ARC/NHMRC). […]” for “QBI/059/13/ARC/NHMRC).”
NaV channel recordings were performed on oocytes clamped at −80 mV. […] Data were analysed using Clampfit 10.2 and Prism 6.0 (GrahPad Software, La Jolla, CA, USA, 2013). […] Data were normalised to the maximal peak current and analysed using Clampfit 10.2 and Prism 6.0.

human NaV1.5 = conditions: cited from earlier work
Source text: (§4) Approximately 12% of spider toxins are C-terminally amidated. In addition to a possible role in peptide stability, C-terminal amidation can modulate biological activity. The 35-residue spider-venom peptide huwentoxin-IV (HwTx-IV) is a member of NaSpTx Family 1 isolated from venom of the tarantula Haplopelma schmidti (formerly known as Ornithoctonus huwena). Remarkably, native HwTx-IV with C-terminal amidation inhibits hNaV1.7 with is ~50-fold higher potency than a recombinant version with a C-terminal carboxylate group. Although not in the same peptide family as HwTx-IV (NaSpTx F ...

human NaV1.8 = conditions: cited from earlier work
Source text: as §4

T2 sequence (P04775 whole entry): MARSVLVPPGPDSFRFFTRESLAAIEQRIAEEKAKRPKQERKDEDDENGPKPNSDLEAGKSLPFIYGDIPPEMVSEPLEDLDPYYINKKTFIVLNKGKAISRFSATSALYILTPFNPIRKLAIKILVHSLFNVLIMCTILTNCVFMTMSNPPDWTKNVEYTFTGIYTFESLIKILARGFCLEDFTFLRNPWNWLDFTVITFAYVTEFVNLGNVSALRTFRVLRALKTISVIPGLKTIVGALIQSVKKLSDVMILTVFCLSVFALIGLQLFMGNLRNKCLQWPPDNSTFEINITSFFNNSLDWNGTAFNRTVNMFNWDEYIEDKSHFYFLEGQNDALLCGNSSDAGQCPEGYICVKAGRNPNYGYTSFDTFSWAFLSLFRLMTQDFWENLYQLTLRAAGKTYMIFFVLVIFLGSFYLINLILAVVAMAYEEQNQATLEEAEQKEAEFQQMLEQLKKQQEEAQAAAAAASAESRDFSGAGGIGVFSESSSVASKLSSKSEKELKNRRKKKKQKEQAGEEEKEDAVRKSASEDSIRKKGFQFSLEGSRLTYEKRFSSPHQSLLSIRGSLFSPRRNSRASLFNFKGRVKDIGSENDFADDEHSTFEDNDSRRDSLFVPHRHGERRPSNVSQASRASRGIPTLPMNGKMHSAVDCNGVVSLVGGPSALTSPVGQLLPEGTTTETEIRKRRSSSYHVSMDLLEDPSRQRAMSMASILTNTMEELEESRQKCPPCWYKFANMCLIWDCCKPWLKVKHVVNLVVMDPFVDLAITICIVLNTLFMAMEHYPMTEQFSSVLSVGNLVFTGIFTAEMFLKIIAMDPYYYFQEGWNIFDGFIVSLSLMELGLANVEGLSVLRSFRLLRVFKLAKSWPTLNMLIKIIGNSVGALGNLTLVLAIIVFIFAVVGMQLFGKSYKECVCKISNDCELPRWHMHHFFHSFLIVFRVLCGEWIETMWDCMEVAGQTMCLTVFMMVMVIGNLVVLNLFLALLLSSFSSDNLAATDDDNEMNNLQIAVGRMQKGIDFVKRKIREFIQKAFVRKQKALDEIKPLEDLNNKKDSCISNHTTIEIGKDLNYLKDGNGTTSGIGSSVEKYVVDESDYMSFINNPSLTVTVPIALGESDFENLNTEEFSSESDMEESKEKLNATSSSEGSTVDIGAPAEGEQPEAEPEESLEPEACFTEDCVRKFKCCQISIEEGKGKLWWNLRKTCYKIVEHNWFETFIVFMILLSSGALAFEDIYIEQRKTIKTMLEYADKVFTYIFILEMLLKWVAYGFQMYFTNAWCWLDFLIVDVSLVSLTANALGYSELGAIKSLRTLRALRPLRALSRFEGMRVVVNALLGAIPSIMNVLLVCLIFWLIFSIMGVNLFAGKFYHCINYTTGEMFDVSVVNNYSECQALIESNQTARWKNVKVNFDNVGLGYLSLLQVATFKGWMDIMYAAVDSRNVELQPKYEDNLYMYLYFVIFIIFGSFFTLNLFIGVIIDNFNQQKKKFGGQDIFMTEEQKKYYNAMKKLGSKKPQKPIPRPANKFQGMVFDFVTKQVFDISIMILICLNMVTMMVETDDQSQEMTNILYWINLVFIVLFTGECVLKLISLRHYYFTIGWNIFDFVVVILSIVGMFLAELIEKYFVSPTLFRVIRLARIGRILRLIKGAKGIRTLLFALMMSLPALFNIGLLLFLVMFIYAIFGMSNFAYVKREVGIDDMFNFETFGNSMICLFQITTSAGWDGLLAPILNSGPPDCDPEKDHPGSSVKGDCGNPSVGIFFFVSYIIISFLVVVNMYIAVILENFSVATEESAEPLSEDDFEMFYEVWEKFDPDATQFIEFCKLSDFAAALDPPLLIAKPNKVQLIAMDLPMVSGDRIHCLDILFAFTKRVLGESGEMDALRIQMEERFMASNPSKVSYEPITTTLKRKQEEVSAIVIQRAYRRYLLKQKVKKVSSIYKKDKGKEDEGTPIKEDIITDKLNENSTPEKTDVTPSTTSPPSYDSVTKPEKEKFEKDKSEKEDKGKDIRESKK
T3 sequence (Q14524 whole entry): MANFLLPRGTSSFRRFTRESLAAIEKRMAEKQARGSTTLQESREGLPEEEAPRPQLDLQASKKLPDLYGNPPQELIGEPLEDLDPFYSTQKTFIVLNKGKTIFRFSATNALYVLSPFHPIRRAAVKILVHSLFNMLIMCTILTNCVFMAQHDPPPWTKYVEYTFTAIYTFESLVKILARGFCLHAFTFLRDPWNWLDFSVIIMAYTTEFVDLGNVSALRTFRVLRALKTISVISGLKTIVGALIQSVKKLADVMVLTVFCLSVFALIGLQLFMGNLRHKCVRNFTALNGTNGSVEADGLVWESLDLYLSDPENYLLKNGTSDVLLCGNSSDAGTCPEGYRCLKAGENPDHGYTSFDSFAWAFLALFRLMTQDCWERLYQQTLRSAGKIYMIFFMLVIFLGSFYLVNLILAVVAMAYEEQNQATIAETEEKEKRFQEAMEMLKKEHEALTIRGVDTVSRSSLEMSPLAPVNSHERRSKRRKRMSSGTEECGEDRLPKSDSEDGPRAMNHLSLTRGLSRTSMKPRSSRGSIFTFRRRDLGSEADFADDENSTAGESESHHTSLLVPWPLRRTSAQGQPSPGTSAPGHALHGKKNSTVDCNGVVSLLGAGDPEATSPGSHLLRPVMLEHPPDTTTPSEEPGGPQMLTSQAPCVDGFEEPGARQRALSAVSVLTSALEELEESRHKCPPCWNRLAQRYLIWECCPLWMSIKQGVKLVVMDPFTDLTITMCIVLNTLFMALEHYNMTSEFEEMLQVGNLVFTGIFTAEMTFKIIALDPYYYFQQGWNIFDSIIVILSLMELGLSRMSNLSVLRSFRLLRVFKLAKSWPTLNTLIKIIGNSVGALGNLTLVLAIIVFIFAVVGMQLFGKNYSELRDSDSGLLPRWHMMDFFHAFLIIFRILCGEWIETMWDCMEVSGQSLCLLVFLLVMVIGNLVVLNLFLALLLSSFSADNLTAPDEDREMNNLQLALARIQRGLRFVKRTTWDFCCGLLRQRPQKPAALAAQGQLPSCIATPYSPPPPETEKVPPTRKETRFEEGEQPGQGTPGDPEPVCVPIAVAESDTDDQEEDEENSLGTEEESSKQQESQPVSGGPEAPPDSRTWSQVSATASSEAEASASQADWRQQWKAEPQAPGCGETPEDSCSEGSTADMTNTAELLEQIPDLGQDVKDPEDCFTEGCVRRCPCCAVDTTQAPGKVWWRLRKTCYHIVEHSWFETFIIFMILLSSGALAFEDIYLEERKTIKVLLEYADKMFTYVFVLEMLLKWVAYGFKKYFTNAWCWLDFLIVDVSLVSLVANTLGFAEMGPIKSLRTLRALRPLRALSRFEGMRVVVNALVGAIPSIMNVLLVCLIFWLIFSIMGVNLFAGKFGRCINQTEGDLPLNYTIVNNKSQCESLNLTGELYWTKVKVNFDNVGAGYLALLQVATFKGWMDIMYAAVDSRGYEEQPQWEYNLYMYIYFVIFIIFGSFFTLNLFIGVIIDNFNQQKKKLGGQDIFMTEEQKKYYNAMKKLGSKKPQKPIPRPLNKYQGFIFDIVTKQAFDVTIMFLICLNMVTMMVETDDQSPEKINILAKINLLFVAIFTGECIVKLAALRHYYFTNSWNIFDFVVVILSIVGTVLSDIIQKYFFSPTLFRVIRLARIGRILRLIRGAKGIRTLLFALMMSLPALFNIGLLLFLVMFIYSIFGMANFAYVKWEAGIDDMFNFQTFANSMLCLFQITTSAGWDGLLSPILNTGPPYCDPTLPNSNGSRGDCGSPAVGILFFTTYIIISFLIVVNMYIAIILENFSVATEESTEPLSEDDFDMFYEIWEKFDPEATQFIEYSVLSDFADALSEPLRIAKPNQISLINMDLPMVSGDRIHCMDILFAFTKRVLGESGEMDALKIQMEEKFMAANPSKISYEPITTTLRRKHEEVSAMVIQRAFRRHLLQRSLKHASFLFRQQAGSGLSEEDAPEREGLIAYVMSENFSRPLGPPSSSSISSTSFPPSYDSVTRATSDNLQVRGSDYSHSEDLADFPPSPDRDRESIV

HwTx-IV
Fold higher potency at hNaV1.7, native amidated vs recombinant C-terminal carboxylate (hNaV1.7 [1]; native HwTx-IV (C-terminal amide) versus recombinant version with C-terminal carboxylate, no reference printed at the sentence (isolation: ref 24)): ~ 50 fold

ProTx-II: most potent blocker of hNaV1.7 within NaSpTx family 3
IC50 (NaV1.2 [2]): 41 nM | IC50 (NaV1.5): 79 nM | Binding to NaV1.5 receptor site 4 (in words) (NaV1.5; mutagenesis study of NaV1.5): does not bind to receptor site 4 on the domain II voltage sensor | Effect on NaV1.5 gating (in words) (NaV1.5; voltage-dependence of activation): shifts the voltage-dependence of activation of NaV1.5 to more positive potentials | Activity (channel type), NaSpTx3 alignment (NaV channels; Figure 8C annotation, no reference given): Nav | Voltage sensors bound (in words) (NaV1.2 [3]): binds to the voltage sensors in domains I, II and IV of rat NaV1.2; also recorded: binding to the voltage sensors in domains I, II (receptor site 4), and IV (receptor site 3) of NaV1.2 | Mechanism of sodium conductance reduction (in words) [4]: reduces sodium conductance by trapping the domain II voltage sensor in the closed state

CC(C)C[C@@H]1NC(=O)[C@H](CC(C)C)NC(=O)[C@H](CCC(=O)O)NC(=O)[C@H](CCCNC(=N)N)NC(=O)[C@@H](NC(=O)[C@H](C)N)CSSC[C@@H]2NC(=O)[C@@H]3CSSC[C@@H](C(=O)N[C@H](C(=O)N[C@@H](Cc4c[nH]c5ccccc45)C(=O)N[C@@H](CC(=O)O)C(=O)N[C@@H](Cc4c[nH]c5ccccc45)C(=O)N[C@H](C(=O)N[C@@H](Cc4ccccc4)C(N)=O)[C@@H](C)O)C(C)C)NC(=O)[C@H](Cc4c[nH]cn4)NC(=O)[C@H](Cc4ccc(O)cc4)NC(=O)[C@@H]4CCCN4C(=O)[C@H](Cc4c[nH]c5ccccc45)NC(=O)[C@H](CCCCN)NC(=O)[C@H](CCCCN)NC(=O)[C@H](CCCNC(=N)N)NC(=O)[C@H](CSSC[C@H](NC(=O)CNC(=O)CNC1=O)C(=O)N[C@@H](CO)C(=O)N[C@@H](CCCCN)C(=O)N[C@@H](CC(=O)O)C(=O)N[C@@H](CO)C(=O)N[C@@H](CC(=O)O)C(=O)N3)NC(=O)[C@H](CCC(=O)O)NC(=O)[C@H](CC(C)C)NC(=O)[C@H](Cc1c[nH]cn1)NC(=O)[C@H](C)NC2=O [Phlo1b] (H-ACRELLGGCSKDSDCCAHLECRKKWPYHCVWDWTF-NH2; disulfide 2-16, 9-21, 15-29 (inferred); N-terminus assumed)
IC50 (hNaV1.7 [5]): 360 nM | Selectivity, hNaV1.7 versus rNaV1.2 and hNaV1.5 (in words) (hNaV1.7 [5]): inhibit hNaV1.7 more potently than rNaV1.2 and hNaV1.5 | Hill coefficient, inhibition of hNaV1.7 (hNaV1.7 [5]): 1.04 | inhibition at 1 µM (rNaV1.2): 37% | Effect on rNaV1.2 (in words) (rNaV1.2): only minor inhibitory activity; also recorded: slightly more potent at rNaV1.2 | Effect on hNaV1.5 (in words) (hNaV1.5): only minor inhibitory activity; also recorded: a similar effect as Phlo1a at hNaV1.5 | Effect on I-V relationship of hNaV1.7 (in words) (hNaV1.7 [6]): concentration-dependent, depolarising shifts in the I-V relationship for hNaV1.7

ProTx-I
Blockade of human NaV1.7 (in words) (hNaV1.7 [1]): potent blocker | Effect on NaV channel activation (in words) (NaV channels): inhibit NaV channels by shifting the threshold for channel activation to more positive potentials | Blockade of human NaV1.5 (in words) (human NaV1.5): potent blocker | Blockade of human NaV1.8 (in words) (human NaV1.8): potent blocker

CC[C@H](C)[C@H](NC(=O)[C@@H](NC(=O)[C@H](Cc1c[nH]c2ccccc12)NC(=O)[C@H](CC(=O)O)NC(=O)[C@H](Cc1c[nH]c2ccccc12)NC(=O)[C@@H](NC(=O)[C@@H]1CSSC[C@@H]2NC(=O)[C@H](CC(=O)O)NC(=O)[C@H](CO)NC(=O)[C@H](CC(=O)O)NC(=O)[C@H](CCCCN)NC(=O)[C@H](CO)NC(=O)[C@@H]3CSSC[C@H](NC(=O)[C@H](CCC(=O)O)NC(=O)[C@H](CC(C)C)NC(=O)[C@H](Cc4c[nH]cn4)NC(=O)[C@H](C)NC(=O)[C@H](CSSC[C@H](NC(=O)[C@H](C)N)C(=O)N[C@@H](CCCNC(=N)N)C(=O)N[C@@H](CCC(=O)O)C(=O)N[C@@H](CC(C)C)C(=O)N[C@@H](CC(C)C)C(=O)NCC(=O)NCC(=O)N3)NC2=O)C(=O)N[C@@H](CCCNC(=N)N)C(=O)N[C@@H](CCCCN)C(=O)N[C@@H](CCCCN)C(=O)N[C@@H](Cc2c[nH]c3ccccc23)C(=O)N2CCC[C@H]2C(=O)N[C@@H](Cc2ccc(O)cc2)C(=O)N[C@@H](Cc2c[nH]cn2)C(=O)N1)C(C)C)[C@@H](C)O)C(N)=O [Phlo1a] (H-ACRELLGGCSKDSDCCAHLECRKKWPYHCVWDWTI-NH2; disulfide 2-16, 9-21, 15-29 (inferred); N-terminus assumed)
IC50 (hNaV1.7 [5]): 459 nM | Selectivity, hNaV1.7 versus rNaV1.2 and hNaV1.5 (in words) (hNaV1.7 [5]): inhibited rNaV1.2 and hNaV1.5 much less potently than hNaV1.7; also recorded: inhibit hNaV1.7 more potently than rNaV1.2 and hNaV1.5; also recorded: high level of selectivity for NaV1.7 over NaV1.2 and NaV1.5 | Hill coefficient, inhibition of hNaV1.7 (hNaV1.7 [5]): 0.87 | inhibition at 1 µM (rNaV1.2): < 20% | Effect on rNaV1.2 (in words) (rNaV1.2): only minor inhibitory activity | inhibition at 1 µM (hNaV1.5; 1 μM peptide, 50-ms step to 0 mV from −80 mV every 10 s): < 20% | Effect on hNaV1.5 (in words) (hNaV1.5): only minor inhibitory activity | Effect on I-V relationship of hNaV1.7 (in words) (hNaV1.7 [6]): concentration-dependent, depolarising shifts in the I-V relationship for hNaV1.7
